Results: a compilation of properties of binary mixtures (doi:10.1007/s10953-016-0465-y)

Assay: xn = mol fraction of the nth substance listed
Conditions: 101 kPa

COCCO + CCOS(=O)(=O)[O-].CC[n+]1ccn(C)c1
x2 = 0
Conditions | speed of sound [m/s]
298.15 K | 1344
308.15 K | 1309.2
318.15 K | 1274.5
328.15 K | 1240.1

CCOS(=O)(=O)[O-].CC[n+]1ccn(C)c1 + COCCO
speed of sound [m/s]
Conditions | 298.15 K | 308.15 K | 318.15 K | 328.15 K
x1 = 0.049 | 1381 | – | 1316.1 | 1282.9
x1 = 0.0819 | 1403 | – | 1340.4 | 1308
x1 = 0.1453 | 1441 | 1412 | 1381.9 | –
x1 = 0.1765 | 1457.4 | 1429 | 1399.5 | 1369.2
x1 = 0.2557 | 1494.5 | – | 1438.7 | 1410
x1 = 0.3386 | – | 1500.6 | 1472.9 | –
x1 = 0.4472 | – | 1537.2 | 1510.3 | 1484.3
x1 = 0.5453 | 1592.2 | 1565.7 | 1539.3 | 1514.2
x1 = 0.6466 | 1617.7 | – | 1565.9 | 1541.3
x1 = 0.7562 | 1641.6 | – | 1591.4 | 1567
x1 = 0.8206 | 1654 | 1629.2 | 1604.6 | 1580.4
x1 = 0.8868 | – | 1641 | – | –
x1 = 0.951 | 1674.9 | 1650.6 | 1626.6 | 1602.8
x1 = 1 | 1680.8 | 1656.4 | – | 1608.9
